Experimental data as given in patent US20220041603A1, “SRC INHIBITOR COMPOUNDS FOR SKELETAL MUSCLE MODULATION, METHODS AND USES THEREOF” (SOCIETE DES PRODUITS NESTLE S.A., priority 2018, published 2022).

Assays:
[1] = tested on: human primary muscle stem cells; experiment: Assay for muscle stem cell commitment (Pax7/MyoD immunofluorescence high content screening); type: cell-based; details: Human Skeletal Muscle Myoblasts, donor 8 and donor 4, dose-dependent response, cultures grown 96 hours; for proportion of MyoD+ cells as percent of total cell number (myogenic commitment): MyoD+ = Pax7-/MyoD+ cells; for number of Pax7+ cells (expansion of human primary muscle stem cells): Pax7+ regardless of MyoD expression
Description: (§1) The inventors developed a high content screening to test in vitro compounds on human primary adult muscle cells. Human Skeletal Muscle Myoblasts (HSMM) were purchased from Lonza (https://bioscience.lonza.com). These cells were isolated from the upper arm or leg muscle tissue of normal donors and used after the second passage. Several donors were tested to ensure cell viability and purity before selecting the final donors, which are a person (Donor 8) and a person (Donor 4).
The primary screening assay was based on the high content detection of two important myogenic regulatory factors (Pax7 and MyoD) by immunofluorescence. Pax7 and MyoD are the major hallmarks of muscle stem cell stemness and commitment and can be used to monitor muscle stem cell progeny. In particular, Pax7 marks early amplification while MyoD is a later marker for myogenic commitment, and combinations of these markers define the different states of proliferation, differentiation and self-renewal.
Human primary myoblasts were seeded in 384 well plates at a density of 1′000 cells per well in skeletal muscle growth medium (SKM-M, AMSbio). For treatment, compounds were directly added to the myoblast cultures 16 hours after initial plating. All cultures were then grown for 96 hours. Cells were stained for Pax7 and MyoD expression using antibodies directed against Pax7 and MyoD and counterstained with Hoechst 33342 to visualize cell nuclei. […] Pax7+ cells are defined as cells that express Pax7 regardless of MyoD expression. Image acquisition was performed using the ImageXpress (Molecular Devices) platform. Custom module analysis based on Multi-Wavelength Cell Scoring of the MetaXpress software was used for quantification.

[2] = tested on: human primary muscle cells; experiment: Assay for myogenesis (troponin-T myotube detection); type: cell-based; details: human primary myoblasts, donor 8 and donor 4; dose dependent response; compound treatment 96 hours after differentiation induction
Text: as §1, with “passage.” for “passage. Several donors were tested to ensure cell viability and purity before selecting the final donors, which are a person (Donor 8) and a person (Donor 4).”
This secondary assay focused on the later stage of myogenesis when the muscle cells fuse together and form multinucleated myotubes. This assay was based on the detection of the mature troponin-T protein that is expressed in myotubes. In particular, two measurements were made:
Fusion factor, which is the % of nuclei that are inside the multinucleated myotubes compare to total nuclei and give a readout for muscle cell differentiation.
Myotube area, which is measured based on the Troponin T staining and give a readout on the myotube size and muscle fiber growth.
After one day, the differentiation is induced by a medium change. For treatment, compounds were directly added to the myoblast cultures for 96 hours. Myotubes were stained for TroponinT expression using antibodies directed against TroponinT and counterstained with Hoechst 33342 to visualize cell nuclei. Image acquisition was performed using the ImageXpress (Molecular Devices) platform. Custom module analysis based on Multi-Wavelength Cell Scoring of the MetaXpress software was used for quantification.

Structure (SMILES)	proportion of MyoD+ cells as percent of total cell number (myogenic commitment) [1]	number of Pax7+ cells (expansion of human primary muscle stem cells) [1]	myofiber growth (area covered by troponinT-positive myotubes) [2]	myogenic differentiation (Fusion Factor, percent nuclei within troponinT-positive myotubes) [2]
CC(C)(C)n1nc(-c2cccc3ccccc23)c2c(N)ncnc21 [Napthyl-PP1, 1-(1,1-Dimethylethyl)-3-(1-naphthalenyl)-1H-pyrazolo[3,4-d]pyrimidin-4-amine]	increase	increase	enhances	enhances
CC(C)(C)n1nc(-c2ccc(Cl)cc2)c2c(N)ncnc21 [PP2, 3-(4-Chlorophenyl)-1-(1,1-dimethylethyl)-1H-pyrazolo[3,4-d]pyrimidin-4-amine]	increase	increase	–	enhances
Cc1ccc(-c2nn(C(C)(C)C)c3ncnc(N)c23)cc1 [PP1, 1-(1,1-Dimethylethyl)-3-(4-methylphenyl)-1H-pyrazolo[3,4-d]pyrimidin-4-amine]	increase	increase	–	enhances
